Assay results from patent publication US8933071B2, “Dimethyl fasudil for inducing polyploidization of megakaryocytes and for treating blood and bone marrow diseases and disorders” (Northwestern University, priority 2008, dated 2015).

Tests used:
CMK cells = assay: Polyploidization of CMK cells (DNA content); type: cell-based, human; settings: CMK cells
Experimental: (A) Y10, (B) GIME, and (C) CMK cells were grown in the presence of TPO, SU6656, or vehicle (DMSO) for 72 hours. DNA content was measured by flow cytometry. The percentages of cells that reach a DNA content of ≧8N are boxed in A and C, those equal to 8N are boxed in B. D) CMK cells were grown as in (C), and cell numbers were enumerated at 0, 24, 48 and 72 h.
To study how megakaryocytes switch from a proliferative to endomitotic cell cycle, the Src kinase inhibitor SU6656 is being utilized.
In collaboration with the Broad Institute, a high throughput screen for small molecules was conducted to identify small molecules that preferentially induce polyploidization or differentiation of megakaryocytes. We screened 10,000 compounds from the Broad's extensive collection of small molecules (including known bioactives, kinase and HDAC inhibitors, and natural products) to identify inducers of megakaryocyte polyploidization. […] 6) Data were analyzed using both MetaXpress software and “Cell Profiler,” software designed at MIT and the Broad Institute. […]

[1] = test system: megakaryocyte colonies (CFU-MK) from MPD bone marrow; assay: CFU-MK assay, bone marrow mononuclear cells from a patient with ET; type: cell-based, human; settings: two doses, 10 days
Experimental: FIG. 5 illustrates that the Rho kinase inhibitor dimethylfasudil (DMF) (also know as “ROCK inhibitor”) blocks formation of megakaryocyte colonies (CFU-MK) by bone marrow from patients with Myeloproliferative Disease (MPD).
Data with Patient Samples. Two lead compounds were tested on samples from both MPD (myeloproliferative disease) patients and AMKL (acute megakaryocytic leukemia) patients. […] Referring to FIG. 5, bone marrow mononuclear cells from a patient with ET were cultured with two doses of DMF for 10 days. […] Referring to FIG. 8, bone marrow samples from patients with AMKL were cultured in DMSO (control) or DMF (at 5 μM) for 14 days. Colonies were stained with anti-CD41 antibody and visualized by microcopy (not shown). Total numbers of CD41+ megakaryocyte colonies are shown.
MPDs Patient Specimens. Mononuclear cells from bone marrow of patients were obtained by informed consent from patients at Northwestern Feinberg School of Medicine. […] The cells were stained with 0.4% trypan blue solution for 5 minutes and live cells were counted. […]
CFU-MK (Colony forming units-megakarvocvtes) assay. […] Slides were scored microscopically, and megakaryocyte colonies were defined as colonies with at least three megakaryocytes.

Meg-01 = assay: Polyploidization of Meg-01 cells; type: cell-based

Substance: dimethylfasudil [DMF]
- induction of polyploidization (CMK cells): potent inducer of polyploidization
- formation of aberrant megakaryocyte colonies (CFU-MK) [1]: potently blocked formation
- induction of polyploidization (Meg-01): potent inducer of polyploidization
